Data reported in patent publication US4115385A, “Antibacterial 3-(5-tetrazolyl) penam compounds” (Pfizer Inc., priority 1977, dated 1978).
≈ marks a conversion by molar mass, not a printed value.

Tested on: Streptococcus pyogenes
Test: In vitro minimum inhibitory concentration (MIC) vs. Strep. pyogenes
Assay type: cell-based
Conditions: Streptococcus pyogenes, read-out: MIC vs. Strep. pyogenes
In short: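 Broth inoculated with bacteria and test antibiotic, incubated overnight and read visually; MIC is the lowest concentration preventing turbidity. Test preparations also contain some of the corresponding tetrazole tautomer.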

Row | Compound | MIC [µg/mL]
1 | CC1(C)S[C@@H]2[C@H](NC(=O)C(C(=O)O)c3cccs3)C(=O)N2[C@H]1c1nnn[nH]1 (stereo partly shown) [2-carboxy-2-(2-thienyl)acetyl, 6-(2-Carboxy-2-[2-thienyl]acetamido)-2,2-dimethyl-3-(5-tetrazolyl)penam] | 0.1 (≈ 0.245 µM)
2 | CC1(C)S[C@@H]2[C@H](NC(=O)[C@H](NC(=O)NC(=O)C3CC3)c3ccccc3)C(=O)N2[C@H]1c1nn[nH]n1 | < 0.1
3 | CC1(C)S[C@@H]2[C@H](NC(=O)Cc3ccc(OCCN)cc3)C(=O)N2[C@H]1c1nn[nH]n1 [2-(4-[2-aminoethoxy]phenyl)acetyl, 6-(2-[4-(2-Aminoethoxy)phenyl]acetamido)-2,2-dimethyl-3-(5-tetrazolyl)penam] | < 0.1
4 | CC1(C)S[C@@H]2[C@H](NC(=O)[C@H](NC(=O)OCc3ccccc3)c3ccccc3)C(=O)N2[C@H]1c1nnn[nH]1 | < 0.1
5 | CC1(C)S[C@@H]2[C@H](NC(=O)[C@H](NC(=O)NC(=N)N)c3ccccc3)C(=O)N2[C@H]1c1nnn[nH]1 [D-2-(3-guanylureido)-2-phenylacetyl, 6-(D-2-[3-Guanylureido]-2-phenylacetamido)-2,2-dimethyl-3-(5-tetrazolyl)penam] | < 0.1
6 | CNC(=N)NC(=O)NCC(=O)N[C@@H](C(=O)N[C@@H]1C(=O)N2[C@@H]1SC(C)(C)[C@@H]2c1nn[nH]n1)c1ccccc1 | < 0.1
7 | CC1(C)S[C@@H]2[C@H](NC(=O)[C@H](NC(=O)CNC(=O)Nc3ccccc3)c3ccccc3)C(=O)N2[C@H]1c1nnn[nH]1 | < 0.1
8 | CC1(C)S[C@@H]2[C@H](NC(=O)Cc3ccccc3OCCN)C(=O)N2[C@H]1c1nn[nH]n1 [2-(o-[2-aminoethoxy]phenyl)acetyl, 6-(2-[2-(2-Aminoethoxy)phenyl]acetamido)-2,2-dimethyl-3-(5-tetrazolyl)penam] | < 0.1
9 | CC1(C)S[C@@H]2[C@H](NC(=O)C(C(=O)Oc3ccc4c(c3)CCC4)c3ccccc3)C(=O)N2[C@H]1c1nnn[nH]1 (stereo partly shown) [2-(5-indanyloxycarbonyl)-2-phenylacetyl, 6-(2-[5-Indanyloxycarbonyl]-2-phenylacetamido)-2,2-dimethyl-3-(5-tetrazolyl)penam] | < 0.1
10 | CC1(C)S[C@@H]2[C@H](NC(=O)[C@H](NC(=O)C(=Cc3cccs3)C(=O)O)c3ccccc3)C(=O)N2[C@H]1c1nnn[nH]1 [6-(D-2-[2-carboxy-3-(2-thienyl)acrylamido]-2-phenylacetamido)-2,2-dimethyl-3-(5-tetrazolyl)penam] | < 0.1
11 | CC1(C)S[C@@H]2[C@H](NC(=O)Cc3ccc(CN)s3)C(=O)N2[C@H]1c1nnn[nH]1 [2-(5-aminomethyl-2-thienyl)-acetyl, 6-(2-[5-Aminomethyl-2-thienyl]acetamido)-2,2-dimethyl-3-(5-tetrazolyl)penam] | ≤ 0.1
12 | CC(=N)NCCC(=O)N[C@@H](C(=O)N[C@@H]1C(=O)N2[C@@H]1SC(C)(C)[C@@H]2c1nnn[nH]1)c1ccccc1 | < 0.1
13 | CN(C)C=N[C@@H](C(=O)N[C@@H]1C(=O)N2[C@@H]1SC(C)(C)[C@@H]2c1nnn[nH]1)c1ccc(O)cc1 [6-(D-2-[Dimethylaminomethyleneamino]-2-[p-hydroxyphenyl]-acetamido)-2,2-dimethyl-3-(5-tetrazolyl)-penam] | < 0.1
14 | COc1ccc(C(=O)NCC(=O)N[C@@H](C(=O)N[C@@H]2C(=O)N3[C@@H]2SC(C)(C)[C@@H]3c2nnn[nH]2)c2ccccc2)cc1 | 0.1 (≈ 0.177 µM)
15 | COc1ccc(CC(=O)N[C@@H](C(=O)N[C@@H]2C(=O)N3[C@@H]2SC(C)(C)[C@@H]3c2nnn[nH]2)c2ccccc2)cc1 | 0.1 (≈ 0.192 µM)
16 | CC1(C)S[C@@H]2[C@H](NC(=O)Cc3cccc(OCCN)c3)C(=O)N2[C@H]1c1nn[nH]n1 [2-(3-[2-aminoethoxy]phenyl)acetyl, 6-(2-[3-(2-Aminoethoxy)phenyl]acetamido)-2,2-dimethyl-3-(5-tetrazolyl)penam] | < 0.1
17 | CC1(C)S[C@@H]2[C@H](NC(=O)[C@H](N)C3CCCO3)C(=O)N2[C@H]1c1nnn[nH]1 (stereo partly drawn) [D-2-amino-2-(2-tetrahydrofuryl)acetyl] | < 0.1
18 | CNC(=O)NCCC(=O)N[C@@H](C(=O)N[C@@H]1C(=O)N2[C@@H]1SC(C)(C)[C@@H]2c1nnn[nH]1)c1ccccc1 | < 0.1
19 | CC1(C)S[C@@H]2[C@H](NC(=O)Cc3ccccc3CN=[N+]=[N-])C(=O)N2[C@H]1c1nnn[nH]1 [2-(2-azidomethylphenyl)acetyl, 6-(2-[2-Azidomethylphenyl]acetamido)-2,2-dimethyl-3-(5-tetrazolyl)penam] | ≤ 0.1
20 | CC1(C)S[C@@H]2[C@H](NC(=O)[C@H](NC(=O)CNC(=O)NC(=N)Cc3ccc(Cl)cc3)c3ccccc3)C(=O)N2[C@H]1c1nnn[nH]1 | < 0.1
21 | CC1(C)S[C@@H]2[C@H](NC(=O)[C@H](NC(=O)Nc3ccc(Cl)cc3)c3ccc(O)cc3)C(=O)N2[C@H]1c1nnn[nH]1 | < 0.1
22 | CCOC(=O)NCC(=O)N[C@@H](C(=O)N[C@@H]1C(=O)N2[C@@H]1SC(C)(C)[C@@H]2c1nnn[nH]1)c1ccccc1 | < 0.1
23 | Cc1ccc(NC(=O)N[C@@H](C(=O)N[C@@H]2C(=O)N3[C@@H]2SC(C)(C)[C@@H]3c2nnn[nH]2)c2ccccc2)cc1 [D-2-(3-[p-tolyl]ureido)-2-phenylacetyl] | < 0.1
24 | CC1(C)S[C@@H]2[C@H](NC(=O)[C@H](NC(=O)CNC(=O)NC(=N)NCc3ccccc3)c3ccccc3)C(=O)N2[C@H]1c1nn[nH]n1 | 0.1 (≈ 0.165 µM)
25 | CC1(C)S[C@@H]2[C@H](NC(=O)CNC(=N)c3ccncc3)C(=O)N2[C@H]1c1nnn[nH]1 [2-(4-pyridinecarboxamidino)acetyl] | < 0.1

Same assay, conditions: Streptococcus pyogenes; Table II; two-fold serial dilution, Brain-Heart Infusion broth, overnight; read-out: MIC vs. Strep. pyogenes

Row | MIC [µg/mL] | Compound
26 | 1.56 (≈ 4.79 µM) | CC(=O)NC(=O)N[C@@H]1C(=O)N2[C@@H]1SC(C)(C)[C@@H]2c1nn[nH]n1 [N-acetylcarbomoyl]
27 | 1.56 (≈ 2.91 µM) | CC1(C)S[C@@H]2[C@H](NC(=O)[C@H](NC(=S)NC(=O)c3ccccc3)c3ccccc3)C(=O)N2[C@H]1c1nn[nH]n1 [2-(3-benzoylthioureido)-2-phenylacetyl]
28 | 3.12 (≈ 5.53 µM) | CC1(C)S[C@@H]2[C@H](NC(=O)[C@H](NC(=O)CCNC(=N)c3cc[n+]([O-])cc3)c3ccccc3)C(=O)N2[C@H]1c1nnn[nH]1
29 | 0.004 (≈ 0.00751 µM) | CC1(C)S[C@@H]2[C@H](NC(=O)[C@H](NC(=O)NC(=O)CSC(=N)N)c3ccccc3)C(=O)N2[C@H]1c1nn[nH]n1 [6-(D-2-[3-(2-[Guanylthio]acetyl)ureido]-2-phenylacetamido)-2,2-dimethyl-3-(5-tetrazol-5-yl)penam]
30 | 0.004 (≈ 0.00753 µM) | CC1(C)S[C@@H]2[C@H](NC(=O)[C@H](NC(=O)CNC(=O)NC(=N)N)c3ccc(O)cc3)C(=O)N2[C@H]1c1nnn[nH]1 [6-(D-2-[2-(3-[guanyl]ureido)acetamido]-2-[4-hydroxyphenyl]acetamido)-2,2-dimethyl-3-(5-tetrazolyl)penam]
31 | 25 (≈ 47.9 µM) | CC1(C)S[C@@H]2[C@H](NC(=O)[C@H](NC(=O)C(=O)Oc3ccccc3)c3ccccc3)C(=O)N2[C@H]1c1nnn[nH]1
32 | 0.004 (≈ 0.00999 µM) | CC(=O)C(C(=O)NC1C(=O)N2C(c3nnn[nH]3)C(C)(C)S[C@H]12)c1ccccc1 (stereo partly drawn) [D-2-acetyl-2-phenylacetyl, 6-(2-Acetyl-2-phenylacetamido)-2,2-dimethyl-3-(5-tetrazolyl)penam]
33 | 50 (≈ 113 µM) | CC(=O)C(=O)N[C@@H](C(=O)N[C@@H]1C(=O)N2[C@@H]1SC(C)(C)[C@@H]2c1nnn[nH]1)c1ccccc1 [D-2-(acetylformamido)-2-phenylacetyl]
34 | 0.78 (≈ 2 µM) | CC1(C)S[C@@H]2[C@H](NC(=O)CSc3ccccc3)C(=O)N2[C@H]1c1nnn[nH]1 [2-(phenylthio)acetyl, 6-(2-[phenylthio]acetamido)-2,2-dimethyl-3-(5-tetrazolyl)penam]
35 | 0.004 (≈ 0.00765 µM) | CC1(C)S[C@@H]2[C@H](NC(=O)[C@H](NC(=O)c3ccc([N+](=O)[O-])cc3)c3ccccc3)C(=O)N2[C@H]1c1nn[nH]n1 [D-2-(4-nitrobenzamido)-2-phenylacetyl, 6-(D-2-[4-nitrobenzamido]-2-phenylacetamido)-2,2-dimethyl-3-(5-tetrazolyl)penam]
36 | 0.78 (≈ 1.45 µM) | CC1(C)S[C@@H]2[C@H](NC(=O)[C@H](NC(=O)CSCc3ccccc3)c3ccccc3)C(=O)N2[C@H]1c1nnn[nH]1
37 | 0.39 (≈ 1.07 µM) | CC1(C)S[C@@H]2[C@H](NC(=O)[C@H](N)c3ccco3)C(=O)N2[C@H]1c1nnn[nH]1 [D-2-amino-2-(2-furyl)acetyl]
38 | 0.39 (≈ 0.609 µM) | CC1(C)S[C@@H]2[C@H](NC(=O)[C@H](NC(=O)CNC(=O)NC(=N)NCc3ccc(Cl)cc3)c3ccccc3)C(=O)N2[C@H]1c1nn[nH]n1
39 | 0.002 (≈ 0.00497 µM) | CC1(C)S[C@@H]2[C@H](NC(=O)C(C(=O)O)c3ccccc3)C(=O)N2[C@H]1c1nnn[nH]1 (stereo partly shown) [2-carboxy-2-phenylacetyl, 6-(2-Carboxy-2-phenylacetamido)-2,2-dimethyl-3-(5-tetrazolyl)penam]

Row | Compound | MIC [µg/mL]
40 | CC1(C)S[C@@H]2[C@H](NC(=O)[C@@H](N)Cc3ccc(O)cc3)C(=O)N2[C@H]1c1nn[nH]n1 [L-2-amino-3-(p-hydroxyphenyl)propionyl, 6-(L-2-amino-3-[4-hydroxyphenyl]propionamido)-2,2-dimethyl-3-(5-tetrazoyl)penam] | 0.2 (≈ 0.496 µM)
41 | Cc1onc(-c2ccccc2Cl)c1C(=O)N[C@@H]1C(=O)N2[C@@H]1SC(C)(C)[C@@H]2c1nnn[nH]1 [6-(3-[2-Chlorophenyl]-5-methyl-4-isoxazolecarboxamido)-2,2-dimethyl-3-(5-tetrazolyl)penam] | < 0.1

Same assay, conditions: Streptococcus pyogenes; Table IV; read-out: MIC vs. Strep. pyogenes

Row | MIC [µg/mL] | Compound
42 | 50 (≈ 143 µM) | CC1(C)S[C@@H]2[C@H](N=CN3CCCCCC3)C(=O)N2[C@H]1c1nnn[nH]1 [6-([Hexahydro-1-azepinyl]methyleneamino)-2,2-dimethyl-3-(5-tetrazolyl)penam]

Same assay, conditions: Table IV

Row | Compound | MIC vs. Strep. pyogenes [µg/mL]
43 | 6-(2-[2-Aminomethylphenyl]acetamido)-2,2-dimethyl-3-(1-[2]-pivaloyloxymethyltetrazol-5-yl)penam | < 0.1
